Patent publication US20130178475A1, “sGC STIMULATORS” (IRONWOOD PHARMACEUTICALS, INC., priority 2010, published 2013)

Molecular target: T1, soluble guanylate cyclase (sGC) (Homo sapiens, UniProt Q02108+Q02153)
T1 construct: endogenously expressing soluble guanylate cyclase (sGC); endogenous in cells; host or cells: HEK293
T1 sequence (Q02153 1-619): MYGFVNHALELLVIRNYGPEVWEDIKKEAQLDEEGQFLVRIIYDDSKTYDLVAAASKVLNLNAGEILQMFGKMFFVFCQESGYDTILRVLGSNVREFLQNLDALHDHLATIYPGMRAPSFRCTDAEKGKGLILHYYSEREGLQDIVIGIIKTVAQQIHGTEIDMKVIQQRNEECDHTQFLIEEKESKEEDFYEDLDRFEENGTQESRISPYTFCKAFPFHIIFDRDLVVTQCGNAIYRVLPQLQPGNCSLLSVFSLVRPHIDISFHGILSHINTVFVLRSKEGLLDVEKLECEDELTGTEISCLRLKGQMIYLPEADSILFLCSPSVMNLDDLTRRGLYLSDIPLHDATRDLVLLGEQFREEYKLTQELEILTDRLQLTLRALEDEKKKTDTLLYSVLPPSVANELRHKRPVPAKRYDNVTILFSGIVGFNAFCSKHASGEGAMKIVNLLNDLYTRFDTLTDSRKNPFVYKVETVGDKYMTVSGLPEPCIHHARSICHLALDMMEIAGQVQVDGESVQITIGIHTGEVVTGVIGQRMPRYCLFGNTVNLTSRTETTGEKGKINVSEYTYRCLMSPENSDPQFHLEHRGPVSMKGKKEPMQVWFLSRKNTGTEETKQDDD
T1 sequence (Q02108 1-690): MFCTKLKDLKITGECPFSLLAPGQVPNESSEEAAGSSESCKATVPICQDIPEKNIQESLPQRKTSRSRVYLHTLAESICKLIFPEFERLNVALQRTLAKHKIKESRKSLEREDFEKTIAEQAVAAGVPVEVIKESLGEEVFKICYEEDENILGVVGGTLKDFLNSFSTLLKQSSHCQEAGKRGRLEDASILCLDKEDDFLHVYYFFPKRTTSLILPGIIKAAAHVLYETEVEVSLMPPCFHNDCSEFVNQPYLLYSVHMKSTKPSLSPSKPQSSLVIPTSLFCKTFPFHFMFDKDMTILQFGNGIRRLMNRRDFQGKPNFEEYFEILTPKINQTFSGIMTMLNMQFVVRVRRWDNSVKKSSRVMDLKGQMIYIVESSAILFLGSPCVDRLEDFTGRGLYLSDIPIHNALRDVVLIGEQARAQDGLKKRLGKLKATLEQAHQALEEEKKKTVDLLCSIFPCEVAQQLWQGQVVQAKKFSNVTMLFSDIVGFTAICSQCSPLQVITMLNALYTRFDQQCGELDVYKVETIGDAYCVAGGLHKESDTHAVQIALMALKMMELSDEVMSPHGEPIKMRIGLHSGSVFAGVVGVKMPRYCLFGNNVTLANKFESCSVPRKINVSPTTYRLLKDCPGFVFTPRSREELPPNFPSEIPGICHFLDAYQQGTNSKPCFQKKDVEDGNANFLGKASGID
Assay: sGC-HEK-cGMP assay
Assay type: cell-based
Details: HEK293 cells, 10 min incubation, intracellular cGMP by LC/MS; for Increase in cGMP Concentration Tested at 10 μM in HEK Assay: test compound 10 μM; for Increase in cGMP Concentration Tested at 30 μM in HEK Assay: test compound 30 μM
Method: Human embryonic kidney cells (HEK293), endogenously expressing soluble guanylate cyclase (sGC), were used to evaluate the activity of test compounds. Compounds stimulating the sGC receptor should cause an increase in the intracellular concentration of cGMP. […] Cells were then incubated for 15 minutes at 37° C. with 0.5 mM 3-isobutyl-1-methylxanthine (2004). Test article was then added to the assay mixture (2 μL) and incubated at 37° C. for 10 minutes. After the 10 minute incubation, the assay mixture was aspirated and 0.1M HCl (2004) was added to the cells. The plate was incubated at 4° C. for 30 minutes in the 0.1M HCl to stop the reaction and lyse the cells. The plates were then centrifuged at 1,200 g for 5 minutes at room temperature. Supernatants were collected and transferred to a new flat bottom 96 well plate for analysis. Vehicle controls were carried out using DMSO (1%). A known sGC stimulator, BAY 41-2272, was used as the positive control.
Samples were diluted with an equal volume of 1 M Ammonium Acetate (pH 7) to neutralize samples for better chromatography. A 2×cGMP standard curve was prepared in 0.1 M HCl and then diluted with an equal volume of 1 M Ammonium Acetate, with the following final concentrations in nM: 1024, 512, 256, 128, 64, 32, 16, 8, 4, 2, 1.
cGMP concentrations were determined from each sample using the LC/MS conditions (Table 2 below) and calculated standard curve. EC50 values were calculated from concentration-response curves generated with GraphPad Prism Software.

SMILES	Increase in cGMP Concentration Tested at 10 μM in HEK Assay	Increase in cGMP Concentration Tested at 30 μM in HEK Assay
Nc1nc(-c2nn(Cc3ccccc3F)c3c2CCCC3)ncc1-c1ccncc1 [Compound I-27]	A (A represents no increase or an increase ranging from more than 0 fold to less than 5 fold)	A (A represents no increase or an increase ranging from more than 0 fold to less than 5 fold)
CC1(C)C=Cc2c1c(-c1nccc(N)n1)nn2Cc1ccccc1F [Compound I-28]	B (B represents an increase ranging from 5 fold to less than 10 fold)	C (C represents an increase ranging from 10 fold to less than 20 fold)
CC1(C)C=Cc2c(c(-c3ncccn3)nn2Cc2ccccc2F)C1 [Compound I-29]	A (A represents no increase or an increase ranging from more than 0 fold to less than 5 fold)	B (B represents an increase ranging from 5 fold to less than 10 fold)
Fc1ccccc1Cn1nc(-c2ncccn2)c2c1CCC(F)(F)C2 [Compound I-30]	A (A represents no increase or an increase ranging from more than 0 fold to less than 5 fold)	A (A represents no increase or an increase ranging from more than 0 fold to less than 5 fold)
Nc1ccnc(-c2nn(Cc3ccccc3F)c3c2C2CCC3C2)n1 (centres unmarked) [Compound I-31]	A (A represents no increase or an increase ranging from more than 0 fold to less than 5 fold)	A (A represents no increase or an increase ranging from more than 0 fold to less than 5 fold)
CC1(C)Cc2c(c(-c3ncccn3)nn2Cc2ccccc2F)C(O)C1 (centres unmarked) [Compound I-32]	A (A represents no increase or an increase ranging from more than 0 fold to less than 5 fold)	A (A represents no increase or an increase ranging from more than 0 fold to less than 5 fold)
CC1(C)C=Cc2c(-c3ncccn3)nn(Cc3ccccc3F)c2C1 [Compound I-33]	A (A represents no increase or an increase ranging from more than 0 fold to less than 5 fold)	A (A represents no increase or an increase ranging from more than 0 fold to less than 5 fold)
Nc1nc(-c2nn(Cc3ccccc3F)c3c2CCC3)nc(N)c1/N=N/c1ccccc1 [Compound I-34]	A (A represents no increase or an increase ranging from more than 0 fold to less than 5 fold)	A (A represents no increase or an increase ranging from more than 0 fold to less than 5 fold)
Nc1nc(-c2nn(Cc3ccccc3F)c3c2CCC3)nc(N)c1N [Compound I-35]	A (A represents no increase or an increase ranging from more than 0 fold to less than 5 fold)	A (A represents no increase or an increase ranging from more than 0 fold to less than 5 fold)
COC(=O)Nc1c(N)nc(-c2nn(Cc3ccccc3F)c3c2CCC3)nc1N [Compound I-36]	C (C represents an increase ranging from 10 fold to less than 20 fold)	B (B represents an increase ranging from 5 fold to less than 10 fold)
Fc1ccccc1Cn1nc(-c2cncnc2)c2c1CCCC2 [Compound I-47, 1-(2-fluorobenzyl)-3-(pyrimidin-5-yl)-4,5,6,7-tetrahydro-1H-indazole]	A (A represents no increase or an increase ranging from more than 0 fold to less than 5 fold)	A (A represents no increase or an increase ranging from more than 0 fold to less than 5 fold)
Fc1ccccc1Cn1nc(-c2cccnc2)c2c1CCCC2 [Compound I-48, 1-(2-fluorobenzyl)-3-(pyridin-3-yl)-4,5,6,7-tetrahydro-1H-indazole]	A (A represents no increase or an increase ranging from more than 0 fold to less than 5 fold)	A (A represents no increase or an increase ranging from more than 0 fold to less than 5 fold)
Fc1ccccc1Cn1nc(-c2ccncc2)c2c1CCCC2 [Compound I-49, 1-(2-fluorobenzyl)-3-(pyridin-4-yl)-4,5,6,7-tetrahydro-1H-indazole]	A (A represents no increase or an increase ranging from more than 0 fold to less than 5 fold)	A (A represents no increase or an increase ranging from more than 0 fold to less than 5 fold)
CS(=O)(=O)N1CCc2c(c(-c3ncccn3)nn2Cc2ccccc2F)C1 [Compound I-51, 1-(2-fluorobenzyl)-5-(methylsulfonyl)-3-(pyrimidin-2-yl)-4,5,6,7-tetrahydro-1H-pyrazolo[4,3-c]pyridine]	A (A represents no increase or an increase ranging from more than 0 fold to less than 5 fold)	A (A represents no increase or an increase ranging from more than 0 fold to less than 5 fold)
CC(=O)N1CCc2c(c(-c3ncccn3)nn2Cc2ccccc2F)C1 [Compound I-52, 1-(1-(2-fluorobenzyl)-3-(pyrimidin-2-yl)-6,7-dihydro-1H-pyrazolo[4,3-c]pyridin-5(4H)-yl)ethanone]	A (A represents no increase or an increase ranging from more than 0 fold to less than 5 fold)	A (A represents no increase or an increase ranging from more than 0 fold to less than 5 fold)
O=S(=O)(c1ccccc1)N1CCc2c(c(-c3ncccn3)nn2Cc2ccccc2F)C1 [Compound I-53, 1-(2-fluorobenzyl)-5-(phenylsulfonyl)-3-(pyrimidin-2-yl)-4,5,6,7-tetrahydro-1H-pyrazolo[4,3-c]pyridine]	A (A represents no increase or an increase ranging from more than 0 fold to less than 5 fold)	A (A represents no increase or an increase ranging from more than 0 fold to less than 5 fold)
O=C(c1cccnc1)N1CCc2c(c(-c3ncccn3)nn2Cc2ccccc2F)C1 [Compound I-54]	A (A represents no increase or an increase ranging from more than 0 fold to less than 5 fold)	A (A represents no increase or an increase ranging from more than 0 fold to less than 5 fold)
O=C(c1ccncc1)N1CCc2c(c(-c3ncccn3)nn2Cc2ccccc2F)C1 [Compound I-55]	A (A represents no increase or an increase ranging from more than 0 fold to less than 5 fold)	A (A represents no increase or an increase ranging from more than 0 fold to less than 5 fold)
O=C(c1ccccn1)N1CCc2c(c(-c3ncccn3)nn2Cc2ccccc2F)C1 [Compound I-56]	A (A represents no increase or an increase ranging from more than 0 fold to less than 5 fold)	A (A represents no increase or an increase ranging from more than 0 fold to less than 5 fold)
